Experimental data reported in patent publication US9006139B2, “Active compound combinations” (Bayer Intellectual Property GmbH, priority 2009, dated 2015).
Read-outs that look alike come from different tables or passages of the source.

How the values were obtained:
Format in all cases: in vivo
[1] = test system: Alternaria solani; experiment: Alternaria test (tomatoes)/protective; conditions: Alternaria solani, 72 h, Table E, read-out: Efficacy in % found; for pest or weed control at 50 ppm: 50 ppm a.i.
Summary of the method: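 Protective test: young tomato plants were sprayed with compound in an acetone/dimethylacetamide emulsifier formulation diluted with water. After drying, plants were inoculated with Alternaria solani spores and kept at ~20 °C and 100% relative humidity. Scored 3 days post-inoculation as % efficacy, where 0% equals untreated control and 100% means no disease.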

[2] = test system: Botrytis cinerea; experiment: Botrytis test (beans)/protective; conditions: Botrytis cinerea, 48 h, Table F, read-out: Efficacy in % found; for pest or weed control at 25 ppm: 25 ppm a.i.; for pest or weed control at 50 ppm: 50 ppm a.i.
Summary of the method: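 Young bean plants were sprayed with compound in acetone/dimethylacetamide plus emulsifier diluted in water; once dry, each leaf got 2 agar pieces bearing Botrytis cinerea. Plants were held dark at 20 °C and 100% relative humidity, and lesion size was scored after 2 days as efficacy, 0% matching untreated control and 100% meaning no disease.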

[3] = test system: Septoria tritici; experiment: Septoria tritici-test (wheat)/preventive; conditions: Table H
Description: (§1) Solvent: 49 parts by weight of n,n-dimethylacetamid
(§2) Emulsifier: 1 part by weight of alkylaryl polyglycol ether
(§3) To produce a suitable preparation of active compound, 1 part by weight of active compound or active compound combination is mixed with the stated amounts of solvent and emulsifier, and the concentrate is diluted with water to the desired concentration. To test for preventive activity, young plants are sprayed with the preparation of active compound or active compound combination at the stated rate of application. After the spray coating has been dried, the plants are sprayed with a spore suspension of Septoria tritici. The plants remain for 48 hours in an incubation cabinet at approximately 20° C. and a relative atmospheric humidity of approximately 100% and afterwards for 60 hours at approximately 15° C. in a translucent incubation cabinet at a relative atmospheric humidity of approximately 100%. The plants are placed in the greenhouse at a temperature of approximately 15° C. and a relative atmospheric humidity of approximately 80%. The test is evaluated 21 days after the inoculation. 0% means an efficacy which corresponds to that of the untreated control, while an efficacy of 100% means that no disease is observed.

[4] = test system: Leptosphaeria nodorum; experiment: Leptosphaeria nodorum test (wheat)/preventive; conditions: Parastagonospora nodorum, 192 h, Table K, read-out: Efficacy in % found
Description: as §1, §2
as §3, with “Leptosphaeria nodorum.” for “Septoria tritici.”, “approximately” for “approximately 100% and afterwards for 60 hours at approximately 15° C. in a translucent incubation cabinet at a relative atmospheric humidity of approximately”, “22°” for “15°”, “8” for “21”

[5] = test system: Fusarium graminearum; conditions: Table L; 500 ppm a.i.

**Q.** With Cn1c(=O)c2sc3c(=O)n(C)c(=O)c3sc2c1=O [(I-1), 2,6-dimethyl-1H,5H-[1,4]dithiino[2,3-c:5,6-c′]dipyrrole-1,3,5,7(2H,6H)-tetrone] as the compound, how does the pest or weed control at 12.5 ppm ([1]; test 1, 12.5 ppm a.i.) read?
**A.** Its pest or weed control at 12.5 ppm is 0%.

**Q.** What about the pest or weed control at 50 ppm ([1]; test 1) of the same compound?
**A.** Its pest or weed control at 50 ppm is 45%.

**Q.** And the pest or weed control at 50 ppm ([1]; test 2)?
**A.** The pest or weed control at 50 ppm was 50%.

**Q.** What about the pest or weed control at 25 ppm ([2]; test 1) of the same compound?
**A.** The pest or weed control at 25 ppm was 0%.

**Q.** What about the pest or weed control at 50 ppm ([2]; test 1) of the same compound?
**A.** The pest or weed control at 50 ppm was 45%.

**Q.** What about the pest or weed control at 25 ppm ([2]; test 2) of the same compound?
**A.** The pest or weed control at 25 ppm was 0%.

**Q.** And the pest or weed control at 50 ppm ([2]; test 2)?
**A.** The pest or weed control at 50 ppm was 40%.

**Q.** And the pest or weed control at 12.5 ppm ([2]; test 3, 12.5 ppm a.i.)?
**A.** The pest or weed control at 12.5 ppm was 0%.

**Q.** What about the pest or weed control at 50 ppm ([2]; test 3) of the same compound?
**A.** The pest or weed control at 50 ppm was 58%.

**Q.** What about the “Efficacy in % found” value ([3]; 500 ppm a.i.) of the same compound?
**A.** The value was 30%.

**Q.** What about the “Efficacy in % found” value ([3]; 1000 ppm a.i.) of the same compound?
**A.** The value was 50%.

**Q.** And the pest or weed control at 500 ppm ([4]; 500 ppm a.i.)?
**A.** The pest or weed control at 500 ppm was 13%.

**Q.** What about the pest or weed control at 1000 ppm ([4]; 1000 ppm a.i.) of the same compound?
**A.** The pest or weed control at 1000 ppm was 11%.

**Q.** What about the “Efficacy in % found” value [5] of the same compound?
**A.** Its value is 0%.
